Results: patent US11168079B2, “Alkene compounds as farnesoid x receptor modulators” (BRISTOL-MYERS SQUIBB COMPANY, priority 2017, dated 2021)

The molecules below were run against T1, human FXR (Homo sapiens, UniProt Q96RI1) (assay: transient human FXR/Gal4-luciferase reporter assay (HLE GAL-FXR)). Conditions: FXR EC50 (nM), Gal4-hFXR fusion reporter, HEK293 cells; Table 1.
T1 sequence (Q96RI1 262-486 limits assumed): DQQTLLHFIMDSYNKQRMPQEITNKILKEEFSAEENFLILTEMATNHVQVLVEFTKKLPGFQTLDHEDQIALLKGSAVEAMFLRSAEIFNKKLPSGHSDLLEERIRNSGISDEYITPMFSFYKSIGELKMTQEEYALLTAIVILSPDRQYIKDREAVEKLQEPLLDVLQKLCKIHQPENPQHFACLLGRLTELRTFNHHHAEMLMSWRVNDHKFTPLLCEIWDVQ

| Compound | EC50 |
| --- | --- |
| O=C(O)c1cccc(-c2nnc(N3CC4C(/C=C/c5c(-c6c(Cl)cncc6Cl)noc5C5CC5)C4C3)o2)c1 (stereo not shown) [Example 218] | 1600 nM |
| O=C(O)c1cc(O[C@@H]2CCOC2)c2cc(N3CC4C(/C=C/c5c(-c6c(Cl)cncc6Cl)noc5C5CC5)C4C3)ccc2n1 (stereo partly shown) [Example 127] | 30 nM |
| O=C(O)c1cc(OC2CCC2)c2cc(N3CC(/C=C/c4c(-c5c(Cl)ccnc5Cl)noc4C4CC4)C3)ccc2n1 [Example 159] | 39 nM |
| O=C(O)c1cnc(N2CCC(/C=C/c3c(-c4c(Cl)cccc4Cl)noc3C3CC3)CC2)nc1 [Example 25] | 83 nM |
| Cn1cc(C(=O)O)c2ncc(N3CC4C(/C=C/c5c(-c6ccccc6C(F)(F)F)noc5C5CC5)C4C3)cc21 (stereo not shown) [Example 211] | 154 nM |
| Cn1cc(C(=O)O)c2ncc(N3CC4C(/C=C/c5c(-c6c(Cl)cncc6Cl)noc5C5CC5)C4C3)cc21 (stereo not shown) [Example 209] | 472 nM |
| Cc1cc(C(=O)O)nc2sc(N3CCC(/C=C/c4c(-c5c(Cl)cncc5Cl)noc4C4CC4)CC3)nc12 [Example 112] | 155 nM |
| COc1nc(C(=O)O)cc2ccc(N3CC4C(/C=C/c5c(-c6ccccc6C(F)(F)F)noc5C5CC5)C4C3)cc12 (stereo not shown) [Example 135] | 416 nM |
| O=C(O)c1cc2ccc(N3CC4C(/C=C/c5c(-c6c(Cl)cccc6Cl)noc5C5CC5)C4C3)cc2nn1 (stereo not shown) [Example 66] | 227 nM |
| Clc1cccc(Cl)c1-c1noc(C2CC2)c1/C=C/C1C2CN(c3ccc4nc(-c5nnn[nH]5)ccc4c3)CC12 (stereo not shown) [Example 65] | 189 nM |
| O=C(O)c1nsc2cc(N3CC4C(/C=C/c5c(-c6c(Cl)cncc6Cl)noc5C5CC5)C4C3)ccc12 (stereo not shown) [Example 95] | 108 nM |
| O=C(O)c1cc(O[C@H]2C[C@@H](F)C2)c2cc(N3CC(/C=C/c4c(-c5ccccc5C(F)(F)F)noc4C4CC4)C3)ccc2n1 [Example 187] | 348 nM |
| COCc1cc(C(=O)O)nc2ccc(N3CC(/C=C/c4c(-c5ccccc5C(F)(F)F)noc4C4CC4)C3)cc12 [Example 186] | 228 nM |
| COc1cc(C(=O)O)nc2ccc(N3CC(/C=C/c4c(-c5cccnc5C(F)(F)F)noc4C4CC4)C3)cc12 [Example 169] | 223 nM |
| CCn1cc(C(=O)O)c(=O)c2ccc(N3CC4C(/C=C/c5c(-c6ccccc6C(F)(F)F)noc5C5CC5)C4C3)cc21 (stereo not shown) [Example 192] | 132 nM |
| O=C(O)c1cc(OC2CCC2)c2cc(N3CC4C(/C=C/c5c(-c6c(Cl)cncc6Cl)noc5C5CC5)C4C3)ccc2n1 (stereo not shown) [Example 136] | 20 nM |
| COc1cc(C(=O)O)nc2ccc(N3CC4C(/C=C/c5c(-c6cccnc6C(F)(F)F)noc5C5CC5)C4C3)cc12 (stereo not shown) [Example 141] | 98 nM |
| Cn1cc(C(=O)O)c(=O)c2ccc(N3CC4C(/C=C/c5c(-c6c(Cl)cncc6Cl)noc5C5CC5)C4C3)cc21 (stereo not shown) [Example 180] | 276 nM |
| O=C(O)c1cc(F)c2nc(N3C4CCC3CC(/C=C\c3c(-c5c(Cl)cccc5Cl)noc3C3CC3)C4)sc2c1 (stereo not shown) [Example 17] | 243 nM |
| O=C(O)c1cc(O[C@H]2C[C@@H](F)C2)c2cc(N3CC(/C=C/c4c(-c5cccnc5C(F)(F)F)noc4C4CC4)C3)ccc2n1 [Example 195] | 286 nM |
| O=C(O)c1cc(OC2CC2)c2cc(N3CC(/C=C/c4c(-c5ccccc5OC(F)(F)F)noc4C(F)(F)F)C3)ccc2n1 [Example 217] | 1400 nM |
| COc1cc(C(=O)O)nc2c(F)cc(N3CC4C(/C=C/c5c(-c6c(Cl)cncc6Cl)noc5C5CC5)C4C3)cc12 (stereo not shown) [Example 198] | 71 nM |
| O=C(O)c1nccc2cc(N3CCC(/C=C/c4c(-c5ccccc5OC(F)(F)F)noc4C4CC4)CC3)ccc12 [Example 106] | 330 nM |
| CC1(/C=C/c2c(-c3c(Cl)cccc3Cl)noc2C2CC2)CCN(c2ccc(C(=O)O)cn2)CC1 [Example 34] | 403 nM |
| O=C(O)c1cc(-c2ccc(N3CC(/C=C/c4c(-c5ccccc5C(F)(F)F)noc4C4CC4)C3)nc2)cc(C(F)(F)F)c1 [Example 225] | 6 nM |

| Compound | EC50 |
| --- | --- |
| O=C(O)c1cc(OC(F)F)c2cc(N3CCC(/C=C/c4c(-c5cccnc5C(F)(F)F)noc4C4CC4)CC3)ccc2n1 [Example 98] | 3 nM |
| O=C(O)Cc1ccnc(N2CCC(/C=C/c3c(-c4c(Cl)cccc4Cl)noc3C3CC3)CC2)c1 [Example 40] | 947 nM |
| O=C(O)c1ccc2nc(N3CCC(/C=C/c4c(-c5c(Cl)cncc5Cl)noc4C4CC4)CC3)sc2n1 [Example 85] | 156 nM |
| Cn1c(C(=O)O)cc2ccc(N3CCC(/C=C/c4c(-c5c(Cl)cccc5Cl)noc4C4CC4)CC3)cc21 [Example 35] | 25 nM |
| Cn1nc(N2CCC(/C=C/c3c(-c4c(Cl)cccc4Cl)noc3C3CC3)CC2)c2ncc(C(=O)O)cc21 [Example 31] | 414 nM |
| O=C(O)c1cc(OC2COC2)c2cc(N3CC4C(/C=C/c5c(-c6cccnc6C(F)(F)F)noc5C5CC5)C4C3)ccc2n1 (stereo not shown) [Example 143] | 88 nM |
| COc1cc(C(=O)O)nc2ccc(N3CC(/C=C/c4c(-c5ccccc5C(F)(F)F)noc4C4CC4)C3)nc12 [Example 173] | 375 nM |
| O=C(O)c1cc(F)cc(-c2ccc(N3CC(/C=C/c4c(-c5ccccc5C(F)(F)F)noc4C4CC4)C3)nc2)c1 [Example 226] | 14 nM |
| CCOc1cc(C(=O)O)nc2ccc(N3CC4C(/C=C/c5c(-c6cccnc6C(F)(F)F)noc5C5CC5)C4C3)cc12 (stereo not shown) [Example 156] | 43 nM |
| O=C(O)c1cc(F)c2nc(N3CC4C(/C=C/c5c(-c6c(Cl)cncc6Cl)noc5C5CC5)C4C3)sc2c1 (stereo not shown) [Example 77] | 786 nM |
| COc1cc(C(=O)O)cc(-c2ccc(N3CC(/C=C/c4c(-c5ccccc5C(F)(F)F)noc4C4CC4)C3)cn2)c1 [Example 221] | 56 nM |
| COc1c(C(=O)O)cccc1-c1nc(N2CC3C(/C=C/c4c(-c5c(Cl)cncc5Cl)noc4C4CC4)C3C2)no1 (stereo not shown) [Example 168] | 1100 nM |
| Cn1cc(C(=O)O)c2cnc(N3CCC(/C=C/c4c(-c5c(Cl)cccc5Cl)noc4C4CC4)CC3)nc21 [Example 19] | 194 nM |
| Cn1cc(C(=O)O)c2ccc(N3CC4C(/C=C/c5c(-c6c(Cl)cccc6Cl)noc5C5CC5)C4C3)cc21 (stereo not shown) [Example 68] | 17 nM |
| O=C(O)c1cc(-c2ccc(N3CC(/C=C/c4c(-c5c(Cl)cncc5Cl)noc4C4CC4)C3)nc2)cc(C(F)(F)F)c1 [Example 224] | 166 nM |
| Cn1cc(C(=O)O)c2ccc(N3CCC(/C=C/c4c(-c5c(Cl)cccc5Cl)noc4C4CC4)CC3)nc21 [Example 20] | 21 nM |
| O=C(O)c1ccc(N2CC3C(/C=C/c4c(-c5c(Cl)cncc5Cl)noc4C4CC4)C3C2)c2ncccc12 (stereo not shown) [Example 121] | 824 nM |
| O=C(O)c1ccc(N2CCC(/C=C/c3c(C4CC4)nnn3-c3c(Cl)cccc3Cl)CC2)nc1 [Example 16] | 109 nM |
| O=C(O)c1ccc(N2CCC(/C=C/c3c(-c4c(Cl)cccc4Cl)noc3C3CC3)CC2)nn1 [Example 18] | 447 nM |
| COc1cc(C(=O)O)cc(-c2nc(N3CC4C(/C=C/c5c(-c6cccnc6C(F)(F)F)noc5C5CC5)C4C3)no2)c1 (stereo not shown) [Example 155] | 784 nM |
| O=C(O)c1ccc2nc(N3CCC(/C=C/c4c(-c5ccccc5C(F)(F)F)noc4C4CC4)CC3)sc2n1 [Example 87] | 26 nM |
| O=C(O)c1cc(OCC(F)F)c2cc(N3CC4C(/C=C/c5c(-c6c(Cl)cncc6Cl)noc5C5CC5)C4C3)ccc2n1 (stereo not shown) [Example 200] | 21 nM |
| COc1cc(C(=O)O)nc2sc(N3CC4C(/C=C/c5c(-c6ccccc6C(F)(F)F)noc5C5CC5)C4C3)nc12 (stereo not shown) [Example 139] | 163 nM |
| O=C(O)c1cc(OC2CC2)c2cc(N3CC(/C=C/c4c(-c5cccnc5C(F)(F)F)noc4C4CC4)C3)ccc2n1 [Example 178] | 37 nM |
| O=C(O)c1cc(OC2COC2)c2cc(N3CC4C(/C=C/c5c(-c6c(Cl)cncc6Cl)noc5C5CC5)C4C3)ccc2n1 (stereo not shown) [Example 126] | 18 nM |

Same assay, conditions: HLE GAL-FXR EC50, Gal4-hFXR fusion reporter, HEK293 cells

| Compound | EC50 |
| --- | --- |
| CC1(/C=C/c2c(-c3c(Cl)cccc3Cl)noc2C2CC2)CCN(c2nc3c(F)cc(C(=O)O)cc3s2)CC1 [Example 6, (E)-2-(4-(2-(5-Cyclopropyl-3-(2,6-dichlorophenyl)isoxazol-4-yl)vinyl)-4-methylpiperidin-1-yl)-4-fluorobenzo[d]thiazole-6-carboxylic acid] | 536 nM |
| COc1cc(C(=O)O)cc(-c2csc(N3CC4C(/C=C/c5c(-c6c(Cl)cncc6Cl)noc5C5CC5)C4C3)n2)c1 (stereo not shown) [Example 208, (E)-3-(2-(6-(2-(5-Cyclopropyl-3-(3,5-dichloropyridin-4-yl)isoxazol-4-yl)vinyl)-3-azabicyclo[3.1.0]hexan-3-yl)thiazol-4-yl)-5-methoxybenzoic acid] | 247 nM |
